Assay [1] addresses T1, M3 muscarinic receptors (Homo sapiens, UniProt P20309).
T1 construct: expressed in transfected cells; host or cells: CHO cells
Briefly: Radioligand binding assay, muscarinic M3 receptors. Conditions: test compound 1×10^−6 M. Put shortly:
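Radioligand competition binding, detected by scintillation counting; non-specific binding defined with excess unlabelled ligand. Results given as % inhibition of control specific binding; IC50 from Hill-equation fit of competition curves, Ki via Cheng-Prusoff with radioligand KD from Scatchard plot.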

Assay [2] has as its target T2, 5-HT2A receptor (Homo sapiens, UniProt P28223).
T2 construct: purchased PerkinElmer
Briefly: Radioligand binding assay, serotoninergic 5-HT2A receptors. To be noted: for inhibition at 1 µM: binding assay result in %, Table 5a; for Ki: read-out: Inhibition constants Ki, 5-HT2A. Put shortly:
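Radioligand competition binding with scintillation counting; nonspecific binding defined by excess unlabelled ligand. Data as percent inhibition of control specific binding. IC50 by Hill-equation fit of competition curves; Ki by Cheng-Prusoff, with radioligand Kd from Scatchard plot.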

In assay [3] the target is T3, 5-HT6 receptor (Homo sapiens, UniProt P50406).
T3 construct: purchased PerkinElmer
Nature of the assay: Radioligand binding assay, serotoninergic 5-HT6 receptors. Conditions: for inhibition at 1 µM: binding assay result in %, Table 5a; for Ki: read-out: Inhibition constants Ki, 5-HT6. Put shortly: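 Values are Ki from Cheng–Prusoff, taking IC50 from Hill nonlinear regression of competition curves and KD from a Scatchard plot. Specific binding was total minus binding with excess unlabelled ligand. Radioligand displacement was detected by scintillation counting, and data were also reported as percent of control specific binding.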

In assay [4] the target is T4, receptors D4.4 (Homo sapiens, UniProt P21917).
T4 sequence (P21917 1-419): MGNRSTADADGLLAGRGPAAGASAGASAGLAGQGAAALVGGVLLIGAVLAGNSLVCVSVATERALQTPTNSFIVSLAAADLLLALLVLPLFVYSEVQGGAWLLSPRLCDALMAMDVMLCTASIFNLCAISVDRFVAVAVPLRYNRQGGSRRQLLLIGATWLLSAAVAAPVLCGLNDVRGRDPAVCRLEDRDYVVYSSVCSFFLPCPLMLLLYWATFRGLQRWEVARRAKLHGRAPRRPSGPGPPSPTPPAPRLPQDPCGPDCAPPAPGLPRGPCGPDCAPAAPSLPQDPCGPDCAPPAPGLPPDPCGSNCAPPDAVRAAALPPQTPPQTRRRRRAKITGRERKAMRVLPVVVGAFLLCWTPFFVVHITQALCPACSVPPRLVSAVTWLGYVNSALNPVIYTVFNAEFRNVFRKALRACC
Nature of the assay: Radioligand binding assay, dopaminergic D4 (D4.4) receptors. To be noted: test compound 1×10^−6 M. In short, it runs like this: (§1)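 Competition radioligand binding at human D2, D3 and D4.4 receptors, detected by scintillation counting; nonspecific binding defined with excess unlabelled ligand. Results as percent inhibition of control specific binding; IC50 by Hill-equation nonlinear regression; Ki via Cheng-Prusoff, with radioligand KD from Scatchard plot.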

For assay [5], the target named is dopaminergic receptors D3 (Homo sapiens, UniProt P35462). Nature of the assay: Radioligand binding assay, dopaminergic D3 receptors. Conditions: test compound 1×10^−6 M. Put shortly:
as §1

For assay [6], the system named is σ receptors. Nature of the assay: Radioligand binding assay, σ receptors. Conditions: rat cerebral cortex, [3H]DTG 8 nM. In short, it runs like this: (§2)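 Values derive from radioligand displacement, with non-specific binding defined by excess cold ligand and detection by scintillation. Hill-fit IC50s were converted to Ki via Cheng-Prusoff using Scatchard-derived Kd; percent inhibition of control specific binding also reported.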

Assay [7] concerns α1 adrenergic receptors (rat cerebral cortex). Nature of the assay: Radioligand binding assay, adrenergic α1 receptors. To be noted: test compound 1×10^−6 M. Put shortly: as §2
For assay [8], the target named is 5-HT7 serotoninergic receptors (Homo sapiens, UniProt P34969). Nature of the assay: Cellular functional assay, 5-HT7 serotoninergic receptors. Format: cell-based. To be noted: agonist mode; percent of control specific agonist response. In short, it runs like this:
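Responses expressed as percent of control specific agonist response; EC50 or IC50 from Hill-equation nonlinear fits of mean replicate concentration-response curves. For antagonists, Kb derived by modified Cheng-Prusoff using reference agonist concentration and its EC50.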

SMILES strings stand for the structures.

dopaminergic receptors D3, sequence (P35462 whole entry): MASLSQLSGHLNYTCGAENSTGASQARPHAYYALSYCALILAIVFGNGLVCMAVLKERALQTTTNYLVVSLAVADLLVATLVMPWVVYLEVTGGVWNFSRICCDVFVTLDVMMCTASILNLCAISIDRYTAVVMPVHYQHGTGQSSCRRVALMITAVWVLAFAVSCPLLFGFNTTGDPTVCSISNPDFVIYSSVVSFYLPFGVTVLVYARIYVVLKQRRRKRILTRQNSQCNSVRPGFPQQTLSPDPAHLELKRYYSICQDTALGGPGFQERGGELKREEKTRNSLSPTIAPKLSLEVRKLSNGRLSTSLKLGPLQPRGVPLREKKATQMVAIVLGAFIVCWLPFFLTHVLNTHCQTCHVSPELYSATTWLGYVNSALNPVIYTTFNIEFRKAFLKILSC
T1 sequence (P20309 whole entry): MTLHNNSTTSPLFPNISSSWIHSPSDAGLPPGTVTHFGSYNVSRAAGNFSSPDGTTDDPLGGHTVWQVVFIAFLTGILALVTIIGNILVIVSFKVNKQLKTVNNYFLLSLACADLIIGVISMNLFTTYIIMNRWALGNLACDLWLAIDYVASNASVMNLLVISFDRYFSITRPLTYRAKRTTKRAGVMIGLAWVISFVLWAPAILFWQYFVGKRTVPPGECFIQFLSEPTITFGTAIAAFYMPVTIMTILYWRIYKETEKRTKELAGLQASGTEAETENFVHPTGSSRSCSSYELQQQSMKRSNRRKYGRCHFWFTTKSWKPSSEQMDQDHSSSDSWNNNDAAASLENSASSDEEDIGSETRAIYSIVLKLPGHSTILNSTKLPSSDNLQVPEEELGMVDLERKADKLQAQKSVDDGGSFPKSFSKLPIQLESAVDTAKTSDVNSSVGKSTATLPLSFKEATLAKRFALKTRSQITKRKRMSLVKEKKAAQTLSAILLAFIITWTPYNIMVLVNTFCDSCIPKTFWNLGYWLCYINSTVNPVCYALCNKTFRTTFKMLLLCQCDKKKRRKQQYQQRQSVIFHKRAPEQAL
T2 sequence (P28223 whole entry): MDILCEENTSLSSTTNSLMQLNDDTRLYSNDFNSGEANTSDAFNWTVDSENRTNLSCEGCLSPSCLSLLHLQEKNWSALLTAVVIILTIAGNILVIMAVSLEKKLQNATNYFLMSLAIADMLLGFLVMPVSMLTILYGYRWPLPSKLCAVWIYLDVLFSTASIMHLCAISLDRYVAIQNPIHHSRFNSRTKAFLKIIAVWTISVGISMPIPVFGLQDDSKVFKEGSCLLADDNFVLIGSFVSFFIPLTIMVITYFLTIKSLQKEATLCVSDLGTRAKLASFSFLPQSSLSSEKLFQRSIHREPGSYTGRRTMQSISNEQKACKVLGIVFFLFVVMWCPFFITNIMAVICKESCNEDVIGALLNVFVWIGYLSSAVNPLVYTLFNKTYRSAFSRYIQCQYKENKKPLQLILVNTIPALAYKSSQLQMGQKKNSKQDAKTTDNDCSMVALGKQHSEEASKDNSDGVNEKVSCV
T3 sequence (P50406 whole entry): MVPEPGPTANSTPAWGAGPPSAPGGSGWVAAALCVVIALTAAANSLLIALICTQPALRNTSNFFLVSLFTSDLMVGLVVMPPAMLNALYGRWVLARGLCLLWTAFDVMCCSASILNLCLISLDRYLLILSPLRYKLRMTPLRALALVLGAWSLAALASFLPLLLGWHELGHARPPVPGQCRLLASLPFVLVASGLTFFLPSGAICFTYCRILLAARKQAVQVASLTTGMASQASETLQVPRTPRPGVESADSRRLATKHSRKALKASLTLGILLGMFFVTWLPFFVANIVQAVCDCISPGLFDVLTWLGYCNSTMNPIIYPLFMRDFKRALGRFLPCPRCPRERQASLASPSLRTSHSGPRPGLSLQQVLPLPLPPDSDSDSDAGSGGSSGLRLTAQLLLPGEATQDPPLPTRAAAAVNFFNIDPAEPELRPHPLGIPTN
5-HT7 serotoninergic receptors, sequence (P34969 whole entry): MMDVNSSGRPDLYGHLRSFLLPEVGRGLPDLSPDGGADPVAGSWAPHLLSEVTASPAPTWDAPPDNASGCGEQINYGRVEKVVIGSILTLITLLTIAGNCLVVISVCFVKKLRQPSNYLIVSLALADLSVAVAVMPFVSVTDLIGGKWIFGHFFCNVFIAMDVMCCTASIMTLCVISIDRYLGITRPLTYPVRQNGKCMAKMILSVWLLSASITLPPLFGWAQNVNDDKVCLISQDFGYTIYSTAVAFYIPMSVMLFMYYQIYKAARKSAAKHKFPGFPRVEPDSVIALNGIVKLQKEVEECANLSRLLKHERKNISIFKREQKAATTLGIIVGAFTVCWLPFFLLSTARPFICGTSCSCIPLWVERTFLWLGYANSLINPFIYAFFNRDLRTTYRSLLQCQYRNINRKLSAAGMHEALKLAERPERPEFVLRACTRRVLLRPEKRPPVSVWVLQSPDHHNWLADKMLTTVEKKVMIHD

For `CC(C)(C)c1ccc(S(=O)(=O)NCC2CN(CCOc3cccc4c3OCCO4)C2)cc1` [Compound 181, 4-tert-Butyl-N-[[1-[2-(2,3-dihydro-1,4-benzodioxin-5-yloxy)ethyl]azetidin-3-yl]methyl]benzenesulphonamide], the inhibition (as a rule, the change of the read-out against control, counted positive when it falls) at 1 µM in assay [1] is 0%; in assay [2], 89%; in assay [3] it was 30%; in assay [4], 64%; in assay [5] it was 77%. The “σ [%]” value in assay [6] was determined as 75%. In addition, the “α1 [%]” value in assay [7] is reported as 50%. Besides, the “5-HT7 ag [%]” value in assay [8] stood at 0%.
Turning to `O=S(=O)(NCC1CN(CCOc2cccc3c2OCCO3)C1)c1ccc(Cl)c(Cl)c1` [Compound 183, 3,4-Dichloro-N-[[1-[2-(2,3-dihydro-1,4-benzodioxin-5-yloxy)ethyl]azetidin-3-yl]methyl]benzenesulphonamide], the inhibition at 1 µM in assay [1] was 13%; in assay [2], 94%; in assay [3] it was 81%; in assay [4] it was 80%; in assay [5], 79%. Further, the “σ [%]” value in assay [6] worked out at 94%. Besides, the “α1 [%]” value in assay [7] was 85%. Further, the “5-HT7 ag [%]” value in assay [8] came to 2%.
In the case of `O=S(=O)(N[C@@H]1CCN(CCCc2noc3cc(F)ccc23)C1)c1cc2ccc(Cl)cc2s1` [Compound 198, 6-Chloro-N-[(3R)-1-[3-(6-fluoro-1,2-benzoxazol-3-yl)propyl]pyrrolidin-3-yl]benzothiophene-2-sulphonamide], the inhibition at 1 µM in assay [1] came to 37%; in assay [3], 97%; in assay [4], 48%; in assay [5], 97%. Also, the Ki (commonly a measure of affinity in units of concentration, obtained from inhibition or displacement) in assay [2] is 0.7 nM; in assay [3] it was 8.6 nM. Further, in assay [6], the “σ [%]” value is 86%. In assay [7], the “α1 [%]” value amounted to 76%. Besides, the “5-HT7 ag [%]” value in assay [8] is listed as 1%.
In the case of `O=S(=O)(N[C@H]1CCN(CCCc2noc3cc(F)ccc23)C1)c1cc2ccc(Cl)cc2s1` [Compound 199, 6-Chloro-N-[(3S)-1-[3-(6-fluoro-1,2-benzoxazol-3-yl)propyl]pyrrolidin-3-yl]benzothiophene-2-sulphonamide], the inhibition at 1 µM in assay [1] turned out to be 38%; in assay [3], 91%; in assay [4], 69%; in assay [5], 88%. Moreover, the inhibition constant (Ki) in assay [2] was determined as 0.7 nM; in assay [3], 99 nM. The “σ [%]” value in assay [6] was 80%. In addition, the “α1 [%]” value in assay [7] stood at 66%. For the same molecule, in assay [8], the “5-HT7 ag [%]” value is reported as 1%.
`Cc1c(S(=O)(=O)N[C@H]2CCN(CCCc3noc4cc(F)ccc34)C2)sc2ccc(Cl)cc12` [Compound 205, 5-Chloro-N-[(3S)-1-[3-(6-fluoro-1,2-benzoxazol-3-yl)propyl]pyrrolidin-3-yl]-3-methyl-benzothiophene-2-sulphonamide]: the inhibition at 1 µM in assay [1] came out at 3%; in assay [3], 94%; in assay [4], 73%; in assay [5] it was 99%. In addition, the values for the Ki in assay [2] and in assay [3] were 1.6 nM and 41 nM, respectively. Moreover, the “σ [%]” value in assay [6] came out at 92%. Moreover, in assay [7], the “α1 [%]” value is reported as 71%. Also, in assay [8], the “5-HT7 ag [%]” value is on record as −1%.
Regarding `O=S(=O)(N[C@@H]1CCN(CCCc2noc3cc(F)ccc23)C1)c1cc2ccccc2o1` [Compound 214, N-[(3R)-1-[3-(6-Fluoro-1,2-benzoxazol-3-yl)propyl]pyrrolidin-3-yl]benzo-furan-2-sulphonamide], the inhibition at 1 µM worked out at 11% in assay [1], 97% in assay [3], 61% in assay [4] and 89% in assay [5]. Also, the Ki in assay [2] is 2.1 nM; in assay [3], 7.5 nM. Further, the “σ [%]” value in assay [6] came out at 84%. The “α1 [%]” value in assay [7] is given as 91%. Also, the “5-HT7 ag [%]” value in assay [8] was −1%.
As to `O=S(=O)(N[C@H]1CCN(CCCc2noc3cc(F)ccc23)C1)c1cc2ccccc2o1` [Compound 215, N-[(3S)-1-[3-(6-Fluoro-1,2-benzoxazol-3-yl)propyl]pyrrolidin-3-yl]benzo-furan-2-sulphonamide], the inhibition at 1 µM in assay [1] came to 39%; in assay [3], 93%; in assay [4] it was 88%; in assay [5] it was 85%. Besides, the Ki in assay [2] was found to be 1.2 nM; in assay [3], 21 nM. In assay [6], the “σ [%]” value worked out at 81%. Moreover, the “α1 [%]” value in assay [7] amounted to 89%. Besides, the “5-HT7 ag [%]” value in assay [8] was determined as 0%.
For the molecule `Cc1cc(S(=O)(=O)NC2CCN(CCCc3noc4cc(F)ccc34)C2)c(C)s1` (stereo not shown) [Compound 221, N-[1-[3-(6-Fluoro-1,2-benzoxazol-3-yl)propyl]pyrrolidin-3-yl]-2,5-dimethyl-thiophene-3-sulphonamide], the inhibition at 1 µM in assay [1] stood at 12%; in assay [2], 101%; in assay [3], 92%; in assay [4] it was 93%; in assay [5], 92%. For the same molecule, in assay [6], the “σ [%]” value is recorded as 83%. Also, the “α1 [%]” value in assay [7] was 85%. Further, the “5-HT7 ag [%]” value in assay [8] is given as 2%.
As to `Cc1cc(S(=O)(=O)N[C@@H]2CCN(CCCc3noc4cc(F)ccc34)C2)c(C)s1` [Compound 222, N-[(3R)-1-[3-(6-Fluoro-1,2-benzoxazol-3-yl)propyl]pyrrolidin-3-yl]-2,5-dimethyl-thiophene-3-sulphonamide], the inhibition at 1 µM in assay [1] was determined as 18%; in assay [2], 99%; in assay [3], 94%; in assay [4] it was 98%; in assay [5] it was 74%. For the same molecule, in assay [6], the “σ [%]” value is reported as 95%. In assay [7], the “α1 [%]” value is 92%. For the same molecule, in assay [8], the “5-HT7 ag [%]” value is −1%.
On to `Cc1cc(S(=O)(=O)N[C@H]2CCN(CCCc3noc4cc(F)ccc34)C2)c(C)s1` [Compound 223, N-[(3S)-1-[3-(6-Fluoro-1,2-benzoxazol-3-yl)propyl]pyrrolidin-3-yl]-2,5-dimethyl-thiophene-3-sulphonamide], for which the inhibition at 1 µM in assay [1] was 25%; in assay [2], 99%; in assay [3], 94%; in assay [4], 92%; in assay [5] it was 57%. Moreover, in assay [6], the “σ [%]” value is given as 89%. Also, the “α1 [%]” value in assay [7] is 86%. Further, the “5-HT7 ag [%]” value in assay [8] is 0%.
For `O=S(=O)(N[C@@H]1CCN(CCCc2noc3cc(F)ccc23)C1)c1csc2ccccc12` [Compound 224, N-[(3R)-1-[3-(6-Fluoro-1,2-benzoxazol-3-yl)propyl]pyrrolidin-3-yl]benzothiophene-3-sulphonamide], the inhibition at 1 µM in assay [1] came to 25%; in assay [3], 99%; in assay [4] it was 101%; in assay [5], 87%. Besides, the Ki came to 1.6 nM in assay [2] and 4 nM in assay [3]. Moreover, the “σ [%]” value in assay [6] came out at 91%. Besides, in assay [7], the “α1 [%]” value was 89%. Further, in assay [8], the “5-HT7 ag [%]” value is −1%.
With `O=S(=O)(N[C@H]1CCN(CCCc2noc3cc(F)ccc23)C1)c1csc2ccccc12` [Compound 225, N-[(3S)-1-[3-(6-Fluoro-1,2-benzoxazol-3-yl)propyl]pyrrolidin-3-yl]benzothiophene-3-sulphonamide], the inhibition at 1 µM in assay [1] was found to be 23%; in assay [3], 99%; in assay [4], 91%; in assay [5] it was 84%. For the same molecule, the values for the Ki in assay [2] and in assay [3] were 0.9 nM and 1.6 nM, respectively. Also, in assay [6], the “σ [%]” value came out at 96%. The “α1 [%]” value in assay [7] is on record as 93%. In assay [8], the “5-HT7 ag [%]” value was 0%.

The record behind these values is patent US20140135310A1, “SULPHONAMIDE DERIVATIVES OF ALICYCLIC AMINES FOR THE TREATMENT OF CENTRAL NERVOUS SYSTEM DISEASES” (Adamed Sp. z o.o., priority 2011, published 2014).
